Where a name gives a salt, the structure may show the parent alone.

Series [1] concerns 13 cell lines representing a range of hematologic malignancies. Briefly: Cell viability in panel of hematologic malignancy derived cell lines. To be noted: 100 nM, 72 hours.
Method: Cell viability was determined after 72 hours by detecting luminescence. ALL, acute lymphoblastic leukemia; BL, Burkitt's lymphoma; DLBCL, diffuse large B-cell lymphoma; MCL, mantle cell lymphoma; AML, acute myeloid leukemia; MM, multiple myeloma; LCLs, lymphoblastoid cell lines.
(§2) 5000 cells as indicated were cultured in 96-well plate with 100 μl of media. On the next day, Brusatol or associated analogs were added once to the cells without media change. After treatment, the cells were incubated with 100 μl buffer for 10 minutes at room temperature following the instructions of CellTiter-Glo kit (Promega, Madison, Wis.). Luminescence was detected using a multi-mode reader Cytation 5 (BioTek, Winooski, Vt.). Brusatol or its analogs are dissolved in 100% ethanol and diluted in 1×PBS for treatment. Two independent experiments done in duplicates were performed.
Another series deals with Raji cells. As to the kind of experiment: cells. To be noted: 100 nM for 72 h. The format is cell-based, human.
The subject of the next series is PDX129. Briefly: IC50 assays of biotin-conjugated compounds in multiple PDXs and lymphoma cells. To be noted: Homo sapiens.
The test system of the next series is Jeko-1. Described as above. To be noted: Homo sapiens.
For another series, the system named is Pfeiffer. The description is as above. To be noted: Homo sapiens.
The next series deals with PDX223. The series is described as above. To be noted: Homo sapiens.
The test system of a further series is Toledo. Described as above. To be noted: Homo sapiens.
For series [2] the following is noted: plasma, 1 h.
The conditions of series [3]: plasma, 1 h. The source holds these as a separate data set.
The target in a further series is GST-tagged PI3Kγ (Homo sapiens, UniProt P48736). As to the kind of experiment: Pull-down assay with purified GST-tagged protein. The format is binding. To be noted: 0, 300 μM, or 500 μM. The method, then: PIK3CG cDNA (Plasmid #20574) was purchased from Addgene and cloned into a pGEX-6P-1 vector (GE Healthcare, Madison, Wis., USA). This GST-tagged PIK3CG plasmid was transformed into E. coli BL21 (DE3)-competent cells (Life Technologies, Carlsbad, Calif., USA) for in vitro expression according to Molecular Cloning (Third Edition).
GST-tagged PI3Kγ, sequence (P48736 whole entry): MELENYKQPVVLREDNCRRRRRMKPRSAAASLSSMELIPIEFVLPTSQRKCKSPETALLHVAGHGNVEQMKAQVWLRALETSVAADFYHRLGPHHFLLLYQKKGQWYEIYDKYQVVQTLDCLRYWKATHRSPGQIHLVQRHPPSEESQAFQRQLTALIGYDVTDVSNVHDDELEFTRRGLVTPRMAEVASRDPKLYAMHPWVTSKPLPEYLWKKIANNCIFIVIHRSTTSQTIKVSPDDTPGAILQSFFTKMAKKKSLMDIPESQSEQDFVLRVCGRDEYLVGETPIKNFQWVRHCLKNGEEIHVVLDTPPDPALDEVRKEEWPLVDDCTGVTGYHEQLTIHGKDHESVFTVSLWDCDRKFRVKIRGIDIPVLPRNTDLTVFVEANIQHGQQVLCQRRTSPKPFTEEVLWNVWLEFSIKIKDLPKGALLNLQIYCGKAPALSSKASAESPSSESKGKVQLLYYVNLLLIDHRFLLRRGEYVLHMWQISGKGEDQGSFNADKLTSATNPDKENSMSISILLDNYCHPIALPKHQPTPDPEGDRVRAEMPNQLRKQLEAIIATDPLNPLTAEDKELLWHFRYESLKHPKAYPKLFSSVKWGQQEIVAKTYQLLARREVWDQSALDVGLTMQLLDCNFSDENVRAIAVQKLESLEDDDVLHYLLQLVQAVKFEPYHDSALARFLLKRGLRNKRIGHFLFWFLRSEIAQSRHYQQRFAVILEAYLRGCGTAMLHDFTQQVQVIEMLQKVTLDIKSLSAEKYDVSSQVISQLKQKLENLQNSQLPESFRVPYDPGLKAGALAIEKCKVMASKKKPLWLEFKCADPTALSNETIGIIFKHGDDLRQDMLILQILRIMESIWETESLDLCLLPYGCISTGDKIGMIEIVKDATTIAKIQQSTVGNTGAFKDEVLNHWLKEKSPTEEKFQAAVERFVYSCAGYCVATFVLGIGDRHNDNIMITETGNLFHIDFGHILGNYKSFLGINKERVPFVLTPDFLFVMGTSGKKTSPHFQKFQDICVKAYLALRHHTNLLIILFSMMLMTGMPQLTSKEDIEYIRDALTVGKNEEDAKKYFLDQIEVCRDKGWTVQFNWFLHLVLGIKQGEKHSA
(§1) 30 μg of purified GST-tagged proteins were pre-cleared with Dynabeads M-280 Streptavidin (Invitrogen, Carlsbad, Calif., USA). The supernatants were collected and incubated with Dynabeads M-280 Streptavidin and 0, 300 μM, or 500 μM of biotin-conjugated Brusatol derivatives (51052) overnight at 4° C. For the competitive binding assays, cell lysates from SU-DHL-4 cells were incubated with the biotin-conjugated Brusatol derivative (51048) alone or together with Brusatol as well as Dynabeads M-280 Streptavidin. The complexes were harvested and washed with PBS. The collected beads were mixed with SDS loading buffer for further analysis.

The target in a further series is T1, PI3Kγ (Homo sapiens, UniProt P48736).
T1 construct: endogenous in cells; host or cells: SU-DHL-4 cells (lysate)
T1 sequence (P48736 whole entry): as above
Briefly: Biotin pull-down / competitive binding assay in SU-DHL-4 cell lysates. To be noted: SU-DHL-4 lysate, without parent Brusatol. The protocol: as §1

Method for Jeko-1: as §2
Method for PDX129: as §2
Method for PDX223: as §2
Method for Pfeiffer: as §2
Method for Toledo: as §2

As for `COC(=O)[C@@]12OC[C@]34C([C@@H](O)[C@@H]1O)[C@@]1(C)CC(=O)C(OC(=O)[C@@H]5CCCN5)=C(C)[C@@H]1C[C@H]3OC(=O)[C@H](OC(=O)C=C(C)C)[C@@H]24` (stereo partly drawn) [Compound 31, (1R,2S,3S,3aS,3a1R,4R,6aR,7aR,11aS)-1,2-dihydroxy-3-(methoxycarbonyl)-8,11a-dimethyl-4-((3-methylbut-2-enoyl)oxy)-5,10-dioxo-1,3,3a,4,5,6a,7,7a,10,11,11a,11b-dodecahydro-2H-3,3a1-(epoxymethano)dibenzo[de,g]chromen-9-yl L-prolinate], the “inhibition of cell viability (in words)” value in series [1] is listed as “significantly inhibit cell viability”. The “activity on viability of Raji cells (in words)” value (shortened to “activity on viability”) with Raji cells was “potent activities comparable to or higher than the parent brusatol”.

`COC(=O)[C@@]12OC[C@]34C([C@@H](O)[C@@H]1O)[C@@]1(C)CC(=O)C(OC(=O)CNC(=O)CNC(=O)CN)=C(C)[C@@H]1C[C@H]3OC(=O)[C@H](OC(=O)C=C(C)C)[C@@H]24` (stereo partly drawn) [Compound 23, methyl (1R,2S,3S,3aS,3a1R,4R,6aR,7aR,11aS)-9-((glycylglycylglycyl)oxy)-1,2-dihydroxy-8,11a-dimethyl-4-((3-methylbut-2-enoyl)oxy)-5,10-dioxo-1,4,5,6a,7,7a,10,11,11a,11b-decahydro-2H-3,3a1-(epoxymethano)dibenzo[de,g]chromene-3(3aH)-carboxylate]: in the series with Raji cells, the “activity on viability” value was “potent activities comparable to or higher than the parent brusatol”.

On to `CC(C)=CC(=O)O[C@H]1C(=O)O[C@@H]2C[C@H]3C(C)=C(O)C(=O)C[C@]3(C)C3[C@@H](O)[C@H](O)[C@@]4(C(=O)NCCCCCCNC(=O)CCC[C@@H]5SC[C@@H]6NC(=O)N[C@@H]65)OC[C@]32[C@@H]14` (stereo partly drawn) [Compound 51046, (1R,2S,3S,3aS,3a1R,4R,6aR,7aR,11aS)-1,2,9-trihydroxy-8,11a-dimethyl-5,10-dioxo-3-((6-(4-((3aS,4S,6aR)-2-oxohexahydro-1H-thieno[3,4-d]imidazol-4-yl)butanamido)hexyl)carbamoyl)-1,3,3a,4,5,6a,7,7a,10,11,11a,11b-dodecahydro-2H-3,3a1-(epoxymethano)dibenzo[de,g]chromen-4-yl 3-methylbut-2-enoate], for which the IC50 (commonly the concentration needed to halve the response being measured) came out at 1640 nM in the series with PDX129; 3010 nM in the series on Jeko-1; 8910 nM in the series with Pfeiffer; 8970 nM in the series with PDX223; 494 nM in the series on Toledo.

As for `COC(=O)[C@@]12OC[C@]34C([C@@H](O)[C@@H]1O)[C@@]1(C)CC(=O)C(OC(=O)CNC(=O)CN)=C(C)[C@@H]1C[C@H]3OC(=O)[C@H](OC(=O)C=C(C)C)[C@@H]24` (stereo partly drawn) [Compound 20, methyl (1R,2S,3S,3aS,3a1R,4R,6aR,7aR,11aS)-9-((glycylglycyl)oxy)-1,2-dihydroxy-8,11a-dimethyl-4-((3-methylbut-2-enoyl)oxy)-5,10-dioxo-1,4,5,6a,7,7a,10,11,11a,11b-decahydro-2H-3,3a1-(epoxymethano)dibenzo[de,g]chromene-3(3aH)-carboxylate], the “activity on viability” value in the series with Raji cells was “potent activities comparable to or higher than the parent brusatol”.

For `COC(=O)[C@@]12OC[C@]34C([C@@H](O)[C@@H]1O)[C@@]1(C)CC(=O)C(OC(=O)[C@@H](N)Cc5ccccc5)=C(C)[C@@H]1C[C@H]3OC(=O)[C@H](OC(=O)C=C(C)C)[C@@H]24` (stereo partly drawn) [Compound 14, methyl (1R,2S,3S,3aS,3a1R,4R,6aR,7aR,11aS)-9-((L-phenylalanyl)oxy)-1,2-dihydroxy-8,11a-dimethyl-4-((3-methylbut-2-enoyl)oxy)-5,10-dioxo-1,4,5,6a,7,7a,10,11,11a,11b-decahydro-2H-3,3a1-(epoxymethano)dibenzo[de,g]chromene-3(3aH)-carboxylate], the “inhibition of cell viability (in words)” value in series [1] is “significantly inhibit cell viability”.

For `COC(=O)[C@@]12OC[C@]34C([C@@H](O)[C@@H]1O)[C@@]1(C)CC(=O)C(OC(=O)C[C@H](C)N)=C(C)[C@@H]1C[C@H]3OC(=O)[C@H](OC(=O)C=C(C)C)[C@@H]24` (stereo partly drawn) [Compound 26-TFA], the “Plasma stability remaining % at 60 min, rat” value in [2] was 39%. Besides, in series [3], the “Plasma stability remaining % at 60 min, human” value is given as 44%.

Take `COC(=O)[C@@]12OC[C@]34C([C@@H](O)[C@@H]1O)[C@@]1(C)CC(=O)C(OC(=O)C5CCCN5C(=O)OC(C)(C)C)=C(C)[C@@H]1C[C@H]3OC(=O)[C@H](OC(=O)C=C(C)C)[C@@H]24` (stereo partly drawn) [Compound 11, 1-(tert-butyl) 2-((1R,2S,3S,3aS,3a1R,4R,6aR,7aR,11aS)-1,2-dihydroxy-3-(methoxycarbonyl)-8,11a-dimethyl-4-((3-methylbut-2-enoyl)oxy)-5,10-dioxo-1,3,3a,4,5,6a,7,7a,10,11,11a,11b-dodecahydro-2H-3,3a1-(epoxymethano)dibenzo[de,g]chromen-9-yl)(2S)-pyrrolidine-1,2-dicarboxylate]: the “activity on viability” value with Raji cells is “moderate inhibition”.

In the case of `COC(=O)[C@@]12OC[C@]34C([C@@H](O)[C@@H]1O)[C@@]1(C)CC(=O)C(OC(=O)CCCCCNC(=O)CCCC[C@@H]5SC[C@@H]6NC(=O)N[C@@H]65)=C(C)[C@@H]1C[C@H]3OC(=O)[C@H](OC(=O)C=C(C)C)[C@@H]24` (stereo partly drawn) [Compound 51052, methyl (1R,2S,3S,3aS,3a1R,4R,6aR,7aR,11aS)-1,2-dihydroxy-8,11a-dimethyl-4-((3-methylbut-2-enoyl)oxy)-5,10-dioxo-9-((6-(5-((3aS,4S,6aR)-2-oxohexahydro-1H-thieno[3,4-d]imidazol-4-yl)pentanamido)hexanoyl)oxy)-1,4,5,6a,7,7a,10,11,11a,11b-decahydro-2H-3,3a1-(epoxymethano)dibenzo[de,g]chromene-3(3aH)-carboxylate], the 50% inhibitory concentration (IC50) came out at 76 nM in the series on PDX129; 28 nM with Jeko-1; 79 nM with Pfeiffer; 108 nM in the series with PDX223; 388 nM with Toledo. At GST-tagged PI3Kγ, the “association with GST-tagged PI3Kγ in vitro (in words)” value is on record as “formed a complex”.

Take `COC(=O)[C@@]12OC[C@]34C([C@@H](O)[C@@H]1O)[C@@]1(C)CC(=O)C(OC(=O)[C@H](C)NC(=O)[C@H](C)N)=C(C)[C@@H]1C[C@H]3OC(=O)[C@H](OC(=O)C=C(C)C)[C@@H]24` (stereo partly drawn) [Compound 22, methyl (1R,2S,3S,3aS,3a1R,4R,6aR,7aR,11aS)-9-((L-alanyl-L-alanyl)oxy)-1,2-dihydroxy-8,11a-dimethyl-4-((3-methylbut-2-enoyl)oxy)-5,10-dioxo-1,4,5,6a,7,7a,10,11,11a,11b-decahydro-2H-3,3a1-(epoxymethano)dibenzo[de,g]chromene-3(3aH)-carboxylate]: the “activity on viability” value in the series on Raji cells is recorded as “not active”.

On to `COC(=O)[C@@]12OC[C@]34C([C@@H](O)[C@@H]1O)[C@@]1(C)CC(=O)C(OC(=O)C[C@H](C)NC(=O)C[C@H](C)N)=C(C)[C@@H]1C[C@H]3OC(=O)[C@H](OC(=O)C=C(C)C)[C@@H]24` (stereo partly drawn) [Compound 21, methyl (1R,2S,3S,3aS,3a1R,4R,6aR,7aR,11aS)-9-(((S)-3-((S)-3-aminobutanamido)butanoyl)oxy)-1,2-dihydroxy-8,11a-dimethyl-4-((3-methylbut-2-enoyl)oxy)-5,10-dioxo-1,4,5,6a,7,7a,10,11,11a,11b-decahydro-2H-3,3a1-(epoxymethano)dibenzo[de,g]chromene-3(3aH)-carboxylate], for which the “activity on viability” value with Raji cells is recorded as “potent activities comparable to or higher than the parent brusatol”.

In the case of `COC(=O)[C@@]12OC[C@]34C([C@@H](O)[C@@H]1O)[C@@]1(C)CC(=O)C(OC(=O)CCCC[C@@H]5SC[C@@H]6NC(=O)N[C@@H]65)=C(C)[C@@H]1C[C@H]3OC(=O)[C@H](OC(=O)C=C(C)C)[C@@H]24` (stereo partly drawn) [Compound 51048, methyl (1R,2S,3S,3aS,3a1R,4R,6aR,7aR,11aS)-1,2-dihydroxy-8,11a-dimethyl-4-((3-methylbut-2-enoyl)oxy)-5,10-dioxo-9-((5-((3aS,4S,6aR)-2-oxohexahydro-1H-thieno[3,4-d]imidazol-4-yl)pentanoyl)oxy)-1,4,5,6a,7,7a,10,11,11a,11b-decahydro-2H-3,3a1-(epoxymethano)dibenzo[de,g]chromene-3(3aH)-carboxylate], the IC50 in the series on PDX129 is 1730 nM; in the series on Jeko-1 it was 1190 nM; with Pfeiffer, 3170 nM; in the series with PDX223, 3560 nM; in the series with Toledo, greater than 10000 nM. Further, the “binding activity with PI3Kγ (in words)” value on PI3Kγ is “relatively strong”.
